Reference: patent US20050282840A1, “Methods of modulating neurotrophin-mediated activity” (PainCeptor Pharma Corporation, priority 2004, published 2005)
Like-named read-outs stand apart in the source and are kept apart here.

Columns and labels:
[1] = target: T1, p75^NTR receptors (PC12 cells) (Rattus norvegicus, UniProt P07174); assay: Basic screening assay: binding of 125I-BDNF to PC12 cells; conditions: read-out: BDNF Activity % Maximal Binding
T1 construct: endogenous in cells; host or cells: PC12 cells
T1 sequence (P07174 30-425): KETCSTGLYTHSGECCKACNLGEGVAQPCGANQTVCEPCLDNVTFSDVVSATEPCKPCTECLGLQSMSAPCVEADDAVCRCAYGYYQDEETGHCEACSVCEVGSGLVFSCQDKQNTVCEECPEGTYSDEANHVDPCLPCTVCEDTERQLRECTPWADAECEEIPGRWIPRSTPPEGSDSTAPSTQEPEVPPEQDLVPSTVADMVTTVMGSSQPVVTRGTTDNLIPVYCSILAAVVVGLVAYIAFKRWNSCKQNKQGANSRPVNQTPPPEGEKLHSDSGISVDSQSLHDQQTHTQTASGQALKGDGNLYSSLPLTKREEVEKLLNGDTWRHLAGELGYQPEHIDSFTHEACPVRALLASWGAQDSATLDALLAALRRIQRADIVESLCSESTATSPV
T1 sequence (P23560 129-247 partner): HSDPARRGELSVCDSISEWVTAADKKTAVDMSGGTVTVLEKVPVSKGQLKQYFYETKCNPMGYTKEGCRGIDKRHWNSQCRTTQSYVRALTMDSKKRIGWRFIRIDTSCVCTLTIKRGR
Description: (§1) The compounds were screened for effects on binding of ^125I-BDNF or ^125I-NGF to PC12 cells (p75^NTR receptors), and those that inhibited binding were further tested to determine the EC50 for this inhibition.
(§2) PC12 cells were cultured and prepared for binding assays as described in Example 1.
(§3) Lypophilized Peprotech human recombinant BDNF (Cedarlane Laboratories, Toronto, Canada, cat. # PE 450-02-10) was reconstituted under sterile conditions to 3.5 μM in sterile HKR/1%BSA, and either used immediately or stored in aliquots of 20 μl at −80° C. Immediately prior to use, a 15 nM (30×) solution of ^125I-BDNF or ^125I-NGF was prepared in HKR buffer, and was used at 0.5 nM final concentration.
(§4) Test Compounds were dissolved to 10 mM in DMSO, and those that were not initially soluble were warmed to 40-50° C. and vortexed. Those compounds that were still not in solution were reported as such. Compounds were then stored in this form at −20° C. until use. Immediately before experiments, 100 mM compounds were diluted to 10 mM in DMSO (1:10), followed by a further dilution to 1 mM (1:10) with distilled water, and a further dilution to 500 μM (1:1) with HKR.
(§5) Assays to determine maximum binding (Bmax), non-specific binding (NSB), and binding in the presence of each test compound (e.g., x, y) were performed at least in duplicate. In a total volume of 300 μL, 4×10^6 PC12 cells were incubated, rotating for 2 h at 4° C. with the following:
(§6) At the conclusion of the binding reaction, 100 μL aliquots of the reaction mixtures were carefully layered over 200 μL of a 10% glycerol solution in a 0.4 mL tube, and subjected to centrifugation in a microcentrifuge for 2 minutes at half maximum speed. The cell pellets containing the bound ^125I-BDNF or ^125I-NGF were then measured using a gamma counter. The mean values of the replicates were then calculated to determine the value for maximum binding (Bmax) and nonspecific binding (NSB), and binding in the presence of test compound at 50 μM (Bx). Specific binding (SB) was measured by subtracting the NSB from the Bmax.

[2] = system: p75^NTR receptors (PC12 cells); assay: Basic screening assay: binding of 125I-NGF to PC12 cells; conditions: test compound 50 μM, 0.5 nM 125I-NGF, PC12 cells, 2 h at 4° C., specific binding as percent of control
Description: as §1, §2
Lyophilized Serotec mouse 2.5S NGF (Cedarlane Laboratories, Toronto, Canada, cat. # PMP 04Z) was reconstituted under sterile conditions to 1 mg/mL (38 μM) in sterile 0.2% acetic acid, and 100 μL or 50 μL aliquots were stored frozen at −80° C.
as §3, §4, §5
as §6, with “Bmax. Specific binding in the presence of the test compound (SBx) was determined by subtracting the NSB from the Bx for each test compound; and each SBx was divided by SB and multiplied by 100 to give the specific binding in the presence of the compound as a percent of control specific binding.” for “Bmax.”

[3] = Table 4, test compound 50 μM, 0.5 nM 125I-BDNF, PC12 cells, 2 h at 4° C., specific binding as percent of control
[4] = Table 1, test compound 50 μM, 0.5 nM 125I-BDNF, PC12 cells, 2 h at 4° C., specific binding as percent of control

SMILES | activity at 50 µM [1, 3] [%] | NGF Activity % Maximal Binding ([2]; Table 4) | activity at 50 µM [1, 4] [%] | NGF Activity % Maximal Binding ([2]; Table 1) | activity at 50 µM [1] [%]
Cc1cccc(N2NC(=O)C(=Cc3ccc(-c4cccc([N+](=O)[O-])c4)o3)C2=O)c1 [Compound 140, 4-[5-(3-Nitrophenyl)furan-2-ylmethylene]-1-m-tolyl-pyrazolidine-3,5-dione] | > 50 | * (50 < *) | – | – | –
CCOC(=O)CN1C(=O)S/C(=C\c2ccc(-c3ccc([N+](=O)[O-])cc3C)o2)C1=O [Compound 61, {5-[5-(2-Methyl-4-nitrophenyl)furan-2-ylmethylene]-2,4-dioxo-thiazolidin-3-yl}-acetic acid ethyl ester] | – | – | 40 to 50 | * (50 < *) | –
O=C1NC(=S)S/C1=C/c1ccc(-c2ccc(Cl)c([N+](=O)[O-])c2)o1 [Compound 51, 5-[5-(4-Chloro-3-nitrophenyl)furan-2-ylmethylene]-2-thioxo-thiazolidin-4-one] | – | – | 30 to 40 | * (50 < *) | –
Cc1ccc(C(=O)O)cc1-c1ccc(/C=C2/NC(=O)N(c3ccccc3)C2=O)o1 [Compound 16, 3-[5-(2,5-Dioxo-1-phenyl-imidazolidin-4-ylidenemethyl)furan-2-yl]-4-methylbenzoic acid] | – | – | 0 to 10 | * (50 < *) | –
Cc1cc(-c2ccc(C=C3C(=O)NC(=O)NC3=O)o2)ccc1[N+](=O)[O-] [Compound 96, 5-[5-(3-Methyl-4-nitrophenyl)furan-2-ylmethylene]-pyrimidine-2,4,6-trione] | – | * (50 < *) | – | – | > 50
Cc1ccc(-c2ccc(/C=C3/NC(=O)N(Cc4ccccc4F)C3=O)o2)cc1[N+](=O)[O-] [Compound 129, 3-(2-Fluorobenzyl)-5-[5-(4-methyl-3-nitrophenyl)furan-2-ylmethylene]-imidazolidine-2,4-dione] | > 50 | * (50 < *) | – | – | –
Cc1cc([N+](=O)[O-])ccc1-c1ccc(C=C2SC(=O)NC2=O)o1 [Compound 92, 5-[5-(2-Methyl-4-nitrophenyl)furan-2-ylmethylene]-thiazolidine-2,4-dione] | > 50 | * (50 < *) | – | – | –
COC(=O)c1ccc(-c2ccc(/C=C3/NC(=O)N(Cc4ccc(F)cc4)C3=O)o2)c(C)c1 [Compound 46, 4-{5-[1-(4-Fluorobenzyl)-2,5-dioxo-imidazolidin-4-ylidenemethyl]furan-2-yl}-3-methylbenzoic acid methyl ester] | – | – | 30 to 40 | * (50 < *) | –
Cc1ccc(N2NC(=O)C(=Cc3ccc(-c4ccc([N+](=O)[O-])cc4Cl)o3)C2=O)cc1C [Compound 23, 4-[5-(2-Chloro-4-nitrophenyl)furan-2-ylmethylene]-1-(3,4-dimethylphenyl)-pyrazolidine-3,5-dione] | – | – | 0 to 10 | * (50 < *) | –
COc1ccc(CN2C(=O)/C(=C\c3ccc(-c4ccc(S(N)(=O)=O)cc4)o3)SC2=S)cc1 [Compound 37, 4-{5-[3-(4-Methoxybenzyl)-4-oxo-2-thioxo-thiazolidin-5-ylidenemethyl]furan-2-yl}benzenesulfonamide] | – | – | 20 to 30 | * (50 < *) | –
Cc1ccc([N+](=O)[O-])cc1-c1ccc(/C=C2/SC(=O)NC2=O)o1 [Compound 88, 5-[5-(2-Methyl-5-nitrophenyl)furan-2-ylmethylene]-thiazolidine-2,4-dione] | > 50 | * (50 < *) | – | – | –
COc1ccc(-c2ccc(C=C3C(=O)NC(=S)NC3=O)o2)cc1[N+](=O)[O-] [Compound 8, 5-[5-(4-Methoxy-3-nitrophenyl)furan-2-ylmethylene]-2-thioxo-dihydro-pyrimidine-4,6-dione] | – | – | – | * (50 < *) | 0 to 10
O=C(O)CCN1C(=O)C(=Cc2ccc(-c3ccc([N+](=O)[O-])cc3)o2)SC1=S [Compound 10, 3-{5-[5-(4-Nitrophenyl)furan-2-ylmethylene]-4-oxo-2-thioxo-thiazolidin-3-yl}-propionic acid] | – | – | 0 to 10 | * (50 < *) | –
COC(=O)c1ccc(-c2ccc(/C=C3/NC(=O)N(c4cccc(Cl)c4)C3=O)o2)c(C)c1 [Compound 135, 4-{5-[1-(3-Chlorophenyl)-2,5-dioxo-imidazolidin-4-ylidenemethyl]furan-2-yl}-3-methylbenzoic acid methyl ester] | > 50 | * (50 < *) | – | – | –
Cc1cc(C(=O)O)ccc1-c1ccc(/C=C2/NC(=O)NC2=O)o1 [Compound 41, 4-[5-(2,5-Dioxo-imidazolidin-4-ylidenemethyl)furan-2-yl]-3-methylbenzoic acid] | – | – | 20 to 30 | * (50 < *) | –
O=C1NC(=S)NC(=O)C1=Cc1ccc(-c2ccc([N+](=O)[O-])cc2Cl)o1 [Compound 4, 5-[5-(2-Chloro-4-nitrophenyl)furan-2-ylmethylene]-2-thioxo-dihydro-pyrimidine-4,6-dione] | – | – | – | * (50 < *) | 0 to 10
CCOC(=O)c1ccc(-c2ccc(/C=C3/NC(=O)N(c4ccccc4)C3=O)o2)cc1 [Compound 54, 4-[5-(2,5-Dioxo-1-phenyl-imidazolidin-4-ylidenemethyl)furan-2-yl]benzoic acid ethyl ester] | – | – | 30 to 40 | * (50 < *) | –
COc1ccc(-c2ccc(/C=C3\SC(=S)NC3=O)o2)cc1[N+](=O)[O-] [Compound 20, 5-[5-(4-Methoxy-3-nitrophenyl)furan-2-ylmethylene]-2-thioxo-thiazolidin-4-one] | – | – | 0 to 10 | * (50 < *) | –
COc1ccc([N+](=O)[O-])cc1-c1ccc(/C=C2/NC(=O)N(c3ccccc3)C2=O)o1 [Compound 123, 5-[5-(2-Methoxy-5-nitrophenyl)furan-2-ylmethylene]-3-phenyl-imidazolidine-2,4-dione] | > 50 | * (50 < *) | – | – | –
O=C(O)c1ccc(-c2ccc(/C=C3/NC(=O)N(Cc4ccccc4F)C3=O)o2)cc1Cl [Compound 27, 2-Chloro-4-{5-[1-(2-fluorobenzyl)-2,5-dioxo-imidazolidin-4-ylidenemethyl]furan-2-yl}benzoic acid] | – | – | 0 to 10 | * (50 < *) | –
Cc1cc(-c2ccc(C=C3SC(=S)N(CC(=O)O)C3=O)o2)ccc1[N+](=O)[O-] [Compound 15, {5-[5-(3-Methyl-4-nitrophenyl)furan-2-ylmethylene]-4-oxo-2-thioxo-thiazolidin-3-yl}-acetic acid] | – | – | 0 to 10 | – | –
